For experiment [1], the system named is HepG2. The experiment is described as follows: Cytotoxicity against human HepG2 cells assessed as condensation of nuclei, shrinkage of the cytoplasm, convolution of outlines, budding and formation of apoptotic bodies at 40 uM after 24 hrs by light microscopy. The format is functional, cell-based.
The subject of experiment [2] is MCF7. The experiment is described as follows: Induction of apoptosis in human MCF7 cells assessed as P1 population at 100 uM after 24 hrs by annexin V-FITC/propidium iodide staining-based FACS flow cytometric analysis relative to control. The format is functional.
Experiment [3] concerns MCF7. The experiment is described as follows: Induction of apoptosis in human MCF7 cells assessed as P2 population at 100 uM after 48 hrs by annexin V-FITC/propidium iodide staining-based FACS flow cytometric analysis (reference value: 13.5%). The format is functional.
The subject of experiment [4] is MCF7. Put plainly: Induction of apoptosis in human MCF7 cells assessed as P1 population at 200 uM after 24 hrs by annexin V-FITC/propidium iodide staining-based FACS flow cytometric analysis relative to control. The format is functional.
The subject of experiment [5] is MCF7. The experiment is described as follows: Induction of apoptosis in human MCF7 cells assessed as apoptotic DNA fragments at 100 uM after 72 hrs by DNA gel electrophoresis assay. In kind it is functional, cell-based.
The test system of experiment [6] is MCF7. The experiment is described as follows: Cytotoxicity against human MCF7 cells assessed as condensation of nuclei, shrinkage of the cytoplasm, convolution of outlines, budding and formation of apoptotic bodies at 40 uM after 24 hrs by light microscopy. In kind it is functional, cell-based.
The target in experiment [7] is Tyrosyl-DNA phosphodiesterase 1 (Homo sapiens, UniProt Q9NUW8). Put plainly: Inhibition of recombinant TDP1 (unknown origin) assessed as increase in fluorescence.
Chain of Tyrosyl-DNA phosphodiesterase 1 (Q9NUW8 whole entry): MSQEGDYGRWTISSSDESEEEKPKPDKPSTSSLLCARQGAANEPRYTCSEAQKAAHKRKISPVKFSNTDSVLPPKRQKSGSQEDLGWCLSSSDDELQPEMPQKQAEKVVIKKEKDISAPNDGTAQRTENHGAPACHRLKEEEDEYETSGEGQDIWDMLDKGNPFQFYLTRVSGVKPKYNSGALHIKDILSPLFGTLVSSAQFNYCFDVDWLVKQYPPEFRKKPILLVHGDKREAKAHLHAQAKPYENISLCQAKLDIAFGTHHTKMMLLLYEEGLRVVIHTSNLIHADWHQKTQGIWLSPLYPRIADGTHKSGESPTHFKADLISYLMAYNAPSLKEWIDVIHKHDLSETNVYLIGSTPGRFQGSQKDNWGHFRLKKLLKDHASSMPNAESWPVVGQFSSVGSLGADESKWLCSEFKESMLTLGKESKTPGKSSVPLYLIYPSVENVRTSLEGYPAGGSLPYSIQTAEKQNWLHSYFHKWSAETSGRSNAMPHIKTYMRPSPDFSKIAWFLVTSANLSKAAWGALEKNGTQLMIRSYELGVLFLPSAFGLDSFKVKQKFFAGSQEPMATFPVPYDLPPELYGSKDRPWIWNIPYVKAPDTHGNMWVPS
Experiment [8] deals with MCF7. The experiment is described as follows: Cytotoxicity against human MCF7 cells assessed as condensation of nuclei, shrinkage of the cytoplasm, convolution of outlines, budding and formation of apoptotic bodies at 200 uM after 24 hrs by light microscopy. The format is functional, cell-based.
The test system of experiment [9] is MCF7. Put plainly: Induction of apoptosis in human MCF7 cells assessed as P1 population at 100 uM after 48 hrs by annexin V-FITC/propidium iodide staining-based FACS flow cytometric analysis relative to control. In kind it is functional.
The test system of experiment [10] is MCF7. The experiment is described as follows: Induction of apoptosis in human MCF7 cells assessed as P2 population at 200 uM after 48 hrs by annexin V-FITC/propidium iodide staining-based FACS flow cytometric analysis (reference value: 13.5%). In kind it is functional. (In general: In flow cytometry, cells or beads pass a laser one at a time.)
Experiment [11] has as its system MCF7. The experiment is described as follows: Cytotoxicity against human MCF7 cells assessed as reduction In cell number after 72 hrs by MTT assay. The conditions noted are these: MCF7, 72 h. In kind it is functional.
For experiment [12], the system named is MCF7. Put plainly: Induction of apoptosis in human MCF7 cells assessed as P1 population at 200 uM after 48 hrs by annexin V-FITC/propidium iodide staining-based FACS flow cytometric analysis relative to control. In kind it is functional.
For experiment [13], the system named is HepG2. The experiment is described as follows: Cytotoxicity against human HepG2 cells assessed as condensation of nuclei, shrinkage of the cytoplasm, convolution of outlines, budding and formation of apoptotic bodies at 200 uM after 24 hrs by light microscopy. The format is functional, cell-based.
Experiment [14] concerns HepG2. The experiment is described as follows: Cytotoxicity against human HepG2 cells assessed as reduction In cell number after 72 hrs by MTT assay. In kind it is functional. The following applies: HepG2, 72 h. For orientation: Formazan colour is commonly taken as a measure of viable cells.

The source made the active and inactive calls. No cut-off for these calls is given here.

One may read the IC50 as the concentration that inhibits the measured activity by half. In general, CC50 refers to the concentration giving 50% cytotoxicity. As to `O=C(Nc1cc(C(F)(F)F)cc2c1SSSSS2)C(F)(F)F`, the inhibition entry in the experiment on HepG2 [1], with MCF7 [6], with MCF7 [8] and in the experiment on HepG2 [13] was “Active” throughout. Moreover, the Activity was 1.2% in the experiment with MCF7 [2]; 23% in the experiment with MCF7 [3]; 8.3% in the experiment on MCF7 [4]; 9.5% in the experiment with MCF7 [9]; 33.6% with MCF7 [10]; 20.1% with MCF7 [12]. In addition, the result in the experiment on MCF7 [5] was Active. Moreover, the IC50 in [7] was greater than 10 µM. In addition, the cytotoxic concentration (CC50) in the experiment on MCF7 [11] stood at 21 µM.
`O=C(CN1CCCCC1)Nc1cc(C(F)(F)F)cc2c1SSSSS2`: the Activity in the experiment on MCF7 [2] is listed as 0%; with MCF7 [4] it was 0%; with MCF7 [12], 0.9%. Moreover, the result in the experiment on MCF7 [5] was Active. The results for the CC50 in the experiment on HepG2 [14] and with MCF7 [11] were 24.4 µM and 19.3 µM, respectively. Moreover, the IC50 in experiment [7] worked out at 1.28 µM.
In the case of `Nc1cc(C(F)(F)F)cc2c1SSSSS2`, the Activity in the experiment with MCF7 [2] was 0%; in the experiment with MCF7 [4], 0%; with MCF7 [12], 0.8%. Besides, in the experiment with MCF7 [5], the outcome was Active. Also, the CC50 in the experiment with HepG2 [14] came out at 26.6 µM; in the experiment on MCF7 [11], 14 µM. Moreover, in experiment [7], the IC50 was greater than 10 µM.
For `O=C(CCN1CCCC1)Nc1cc(C(F)(F)F)cc2c1SSSSS2`, the IC50 in [7] turned out to be 6.03 µM.
On the same count and under the same terms, the value for `O=C(CN1CCCCC1)Nc1ccccc1` was greater than 10 µM.
In the case of `O=C(CN1CCCC1)Nc1ccccc1`, the IC50 in experiment [7] was greater than 10 µM.
Take `O=C(CN1CCOCC1)Nc1cc(C(F)(F)F)cc2c1SSSSS2`: the IC50 in [7] came out at 1.62 µM.
For the compound `CCCCN(CCCC)CC(=O)Nc1cc(C(F)(F)F)cc2c1SSSSS2`, the Activity in the experiment with MCF7 [4] came out at 1.51%; in the experiment with MCF7 [12] it was 10.5%. Besides, the outcome with MCF7 [5] was Active. Besides, the CC50 in the experiment with HepG2 [14] is greater than 100 µM; with MCF7 [11], 28.1 µM. The IC50 in experiment [7] turned out to be 0.22 µM.
For `O=C(CCN1CCOCC1)Nc1cc(C(F)(F)F)cc2c1SSSSS2`, the IC50 in [7] was determined as 1.3 µM.
The same measure, in the same setting: the value for `O=C(CCN1CCCCC1)Nc1cc(C(F)(F)F)cc2c1SSSSS2` was 3.66 µM.
The same measure, in the same setting: the result for `O=C(CN1CCCC1)Nc1cc(C(F)(F)F)cc2c1SSSSS2` reads 3.7 µM.
